Results taken from patent US10024845B2, “Methods for determining modulators of insect transient receptor potential V (TRPV) channel” (BASF SE, priority 2013, dated 2018).
Entries after “also recorded” stand apart in the source; their conditions may differ. Like-named read-outs stand apart in the source and are kept apart here.

Experiments:
[1] = test system: insect TRPV channel (Drosophila Nanchung and Inactive co-expressed); assay type: cell-based; conditions: for Response of cells (fluorescence units), Insect TRPV cells: single high dose 20 μM; for Ca2+ mobilization in cells co-expressing Nan and Iav (insect TRPV channel), in words: FLUO4 probe; for Dependence of the cell response on Ca2+ in the extracellular media: insect TRPV-expressing cells; for Inhibition of stimulation of the insect TRPV channel: cell-impermeable ion channel blocker
[2] = target: mouse TRPV4 (mTRPV4) (Mus musculus, UniProt Q9EPK8); assay: Ca2+ mobilization (FLUO4, FLIPR) in CHO-K1 cells expressing mTRPV4; assay type: cell-based; conditions: for Ca2+ mobilization in cells expressing mTRPV4, in words: FLUO4 probe
[3] = test system: parental CHO-K1 cells; assay type: cell-based, hamster
[4] = CHO-K1 cells expressing insect TRPV
[5] = single high dose 20 μM, CHO-K1 cells expressing mTRPV4
[6] = single high dose 20 μM, parental CHO-K1 cells
[7] = listed as metabolite B of Pyrifluquinazon

Sequence of mouse TRPV4 (mTRPV4) (Q9EPK8 whole entry): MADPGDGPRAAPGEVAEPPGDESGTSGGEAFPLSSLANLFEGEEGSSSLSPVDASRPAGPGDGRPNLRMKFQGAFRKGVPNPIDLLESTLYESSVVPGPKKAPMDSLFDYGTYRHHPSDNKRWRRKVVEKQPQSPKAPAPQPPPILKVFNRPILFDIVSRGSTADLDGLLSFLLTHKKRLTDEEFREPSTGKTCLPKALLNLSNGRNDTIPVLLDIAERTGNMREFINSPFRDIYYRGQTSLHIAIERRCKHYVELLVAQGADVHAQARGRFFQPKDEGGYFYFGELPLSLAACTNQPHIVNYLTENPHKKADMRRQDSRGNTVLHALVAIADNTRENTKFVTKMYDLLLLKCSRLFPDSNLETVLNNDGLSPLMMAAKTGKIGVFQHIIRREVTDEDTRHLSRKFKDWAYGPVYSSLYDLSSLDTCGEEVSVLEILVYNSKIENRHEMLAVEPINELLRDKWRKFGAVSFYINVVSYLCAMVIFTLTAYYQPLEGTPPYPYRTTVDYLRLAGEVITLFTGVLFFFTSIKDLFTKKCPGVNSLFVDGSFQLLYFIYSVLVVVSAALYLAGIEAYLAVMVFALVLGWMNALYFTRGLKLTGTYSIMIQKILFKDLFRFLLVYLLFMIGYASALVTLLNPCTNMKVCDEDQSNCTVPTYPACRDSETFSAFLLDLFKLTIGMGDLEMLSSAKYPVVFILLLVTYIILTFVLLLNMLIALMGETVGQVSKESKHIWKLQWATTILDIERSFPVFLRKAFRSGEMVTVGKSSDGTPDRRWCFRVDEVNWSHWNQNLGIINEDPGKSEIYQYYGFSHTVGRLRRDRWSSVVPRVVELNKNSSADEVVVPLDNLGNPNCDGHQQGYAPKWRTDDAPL

CNC(=O)c1cc(Cl)cc(C)c1NC(=O)c1cc(Br)nn1-c1ncccc1Cl [Rynaxapyr]
Response of cells (fluorescence units), Insect TRPV cells [1, 4]: 43 fluorescence units | Response of cells (fluorescence units), mTRPV4 cells [2, 5]: 74 fluorescence units | Response of cells (fluorescence units), Parental CHO cells [3, 6]: 93 fluorescence units

O=C1Nc2ccc(C(F)(C(F)(F)F)C(F)(F)F)cc2CN1NCc1cccnc1 [Pyrifluquinazon metabolite B]
Potency relative to the parental compound pyrifluquinazon [1]: about 100 fold | Ca2+ mobilization in cells co-expressing Nan and Iav (insect TRPV channel), in words [1]: activation of insect TRPV channel | Ca2+ mobilization in cells co-expressing Nan and Iav (insect TRPV channel), in words [1, 7]: triggered Ca^2+ mobilization | Dependence of the cell response on Ca2+ in the extracellular media [1]: requires presence of Ca^2+ in the extracellular media | Response of cells (fluorescence units), Insect TRPV cells [1, 4]: 538 fluorescence units | Potency against mouse TRPV4 relative to Drosophila TRPV channel [2]: ~100 fold | Ca2+ mobilization in cells expressing mTRPV4, in words [2]: weak activation | Ca2+ mobilization in cells expressing mTRPV4, in words [2, 7]: did trigger Ca^2+ mobilization | Response of cells (fluorescence units), mTRPV4 cells [2, 5]: 346 fluorescence units | Response of cells (fluorescence units), Parental CHO cells [3, 6]: 40 fluorescence units

CC(=O)N1C(=O)N(NCc2cccnc2)Cc2cc(C(F)(C(F)(F)F)C(F)(F)F)ccc21 [pyrifluquinazon]
Ca2+ mobilization in cells co-expressing Nan and Iav (insect TRPV channel), in words [1]: triggered Ca^2+ mobilization | Dependence of the cell response on Ca2+ in the extracellular media [1]: absolutely dependent on the presence of Ca^2+ in the extracellular media

CC[S+]([O-])c1c(C#N)nn(-c2c(Cl)cc(C(F)(F)F)cc2Cl)c1N (centres unmarked) [Ethiprole]
Response of cells (fluorescence units), Insect TRPV cells [1, 4]: 154 fluorescence units | Response of cells (fluorescence units), mTRPV4 cells [2, 5]: 113 fluorescence units | Response of cells (fluorescence units), Parental CHO cells [3, 6]: 357 fluorescence units

O=[N+]([O-])NC1=NCCN1Cc1ccc(Cl)nc1 [Imidacloprid]
Response of cells (fluorescence units), Insect TRPV cells [1, 4]: 42 fluorescence units | Response of cells (fluorescence units), mTRPV4 cells [2, 5]: 16 fluorescence units | Response of cells (fluorescence units), Parental CHO cells [3, 6]: 69 fluorescence units

CC(C)C[C@H](NC(=O)c1cc2ccccc2s1)C(=O)N1CCN(C(=O)[C@H](CO)NS(=O)(=O)c2ccc(Cl)cc2Cl)CC1 [GSK1016790A, N-((1 S)-1-{[4-((2 S)-2-{[(2,4-dichlorophenyl)sulfonyl]amino}-3-hydroxypropanoyl)-1-piperazinyl]carbonyl}-3-methylbutyl)-1-benzothiophene-2-carboxamide]
Response of cells (fluorescence units), Insect TRPV cells [1, 4]: 53 fluorescence units | Ca2+ mobilization in cells expressing mTRPV4, in words [2]: induced strong Ca^2+ mobilization response; also recorded: strong activation | Response of cells (fluorescence units), mTRPV4 cells [2, 5]: 2017 fluorescence units | Response of cells (fluorescence units), Parental CHO cells [3, 6]: 71 fluorescence units

NCC(O)c1ccc(O)cc1 (centres unmarked) [Octopamine]
Response of cells (fluorescence units), Insect TRPV cells [1, 4]: 66 fluorescence units | Response of cells (fluorescence units), mTRPV4 cells [2, 5]: 20 fluorescence units | Response of cells (fluorescence units), Parental CHO cells [3, 6]: 45 fluorescence units

CN1CCN2c3ccccc3Cc3ccccc3C2C1 (centres unmarked) [Miansenn]
Response of cells (fluorescence units), Insect TRPV cells ([1]; […]): 86 fluorescence units | Response of cells (fluorescence units), mTRPV4 cells [2, 5]: 30 fluorescence units | Response of cells (fluorescence units), Parental CHO cells [3, 6]: 110 fluorescence units

N#Cc1nn(-c2c(Cl)cc(C(F)(F)F)cc2Cl)c(N)c1[S+]([O-])C(F)(F)F (centres unmarked) [Fipronil]
Response of cells (fluorescence units), Insect TRPV cells [1, 4]: 133 fluorescence units | Response of cells (fluorescence units), mTRPV4 cells [2, 5]: 60 fluorescence units | Response of cells (fluorescence units), Parental CHO cells [3, 6]: 240 fluorescence units

Ryanodine
Response of cells (fluorescence units), Insect TRPV cells ([1]; […]): 53 fluorescence units | Response of cells (fluorescence units), mTRPV4 cells [2, 5]: 19 fluorescence units | Response of cells (fluorescence units), Parental CHO cells [3, 6]: 75 fluorescence units

Abamectin
Response of cells (fluorescence units), Insect TRPV cells [1, 4]: 49 fluorescence units | Response of cells (fluorescence units), mTRPV4 cells [2, 5]: 30 fluorescence units | Response of cells (fluorescence units), Parental CHO cells [3, 6]: 52 fluorescence units

CC(=O)OCC[N+](C)(C)C [Acetylcholine]
Response of cells (fluorescence units), Insect TRPV cells [1, 4]: 250 fluorescence units | Response of cells (fluorescence units), Parental CHO cells [3, 6]: 797 fluorescence units

CN1CCCC1c1cccnc1 (centres unmarked) [Nicotine]
Response of cells (fluorescence units), Insect TRPV cells [1, 4]: 81 fluorescence units | Response of cells (fluorescence units), mTRPV4 cells [2]: 8 fluorescence units | Response of cells (fluorescence units), Parental CHO cells [3]: 65 fluorescence units

Cc1ccc(/N=C/N(C)/C=N/c2ccc(C)cc2C)c(C)c1 [Amitraz]
Response of cells (fluorescence units), Insect TRPV cells [1, 4]: 58 fluorescence units | Response of cells (fluorescence units), mTRPV4 cells [2, 5]: 25 fluorescence units | Response of cells (fluorescence units), Parental CHO cells [3, 6]: 50 fluorescence units

CC1=NNC(=O)N(/N=C/c2cccnc2)C1 [pymetrozine]
Ca2+ mobilization in cells co-expressing Nan and Iav (insect TRPV channel), in words [1]: triggered Ca^2+ mobilization; also recorded: activation of insect TRPV channel | Ca2+ mobilization in cells co-expressing Nan and Iav (insect TRPV channel), in words ([1]; listed as Pymetrozine): triggered Ca^2+ mobilization | Ca2+ mobilization in cells expressing mTRPV4, in words ([2]; listed as Pymetrozine): had no effect

CN/C(=N/CC1CCOC1)N[N+](=O)[O-] (centres unmarked) [Dinotefuran]
Response of cells (fluorescence units), Insect TRPV cells [1, 4]: 48 fluorescence units | Response of cells (fluorescence units), mTRPV4 cells [2, 5]: 23 fluorescence units | Response of cells (fluorescence units), Parental CHO cells [3]: 23 fluorescence units

Clc1cccc(Cl)c1N=C1NCCN1 [Clonidine]
Response of cells (fluorescence units), Insect TRPV cells [1, 4]: 135 fluorescence units | Response of cells (fluorescence units), mTRPV4 cells [2]: 62 fluorescence units | Response of cells (fluorescence units), Parental CHO cells [3]: 136 fluorescence units

c1ccc2c(CC3=NCCN3)cccc2c1 [Naphazoline]
Response of cells (fluorescence units), Insect TRPV cells [1, 4]: 31 fluorescence units | Response of cells (fluorescence units), mTRPV4 cells [2, 5]: 11 fluorescence units | Response of cells (fluorescence units), Parental CHO cells [3, 6]: 50 fluorescence units

NCCCC(=O)O [GABA]
Response of cells (fluorescence units), Insect TRPV cells [1, 4]: 68 fluorescence units | Response of cells (fluorescence units), mTRPV4 cells [2, 5]: 43 fluorescence units | Response of cells (fluorescence units), Parental CHO cells [3, 6]: 100 fluorescence units

Cl[C@H]1[C@H](Cl)[C@@H](Cl)[C@@H](Cl)[C@H](Cl)[C@H]1Cl [Lindane]
Response of cells (fluorescence units), Insect TRPV cells [1, 4]: 35 fluorescence units | Response of cells (fluorescence units), mTRPV4 cells [2, 5]: 12 fluorescence units | Response of cells (fluorescence units), Parental CHO cells [3, 6]: 19 fluorescence units

N#C/N=C1\SCCN1Cc1ccc(Cl)nc1 [Thiacloprid]
Response of cells (fluorescence units), Insect TRPV cells [1, 4]: 36 fluorescence units | Response of cells (fluorescence units), mTRPV4 cells [2, 5]: 16 fluorescence units | Response of cells (fluorescence units), Parental CHO cells [3, 6]: 29 fluorescence units

ClC1=C(Cl)[C@]2(Cl)[C@@H]3[C@@H]4C[C@@H]([C@H]5O[C@@H]45)[C@@H]3[C@@]1(Cl)C2(Cl)Cl [Dieldrin]
Response of cells (fluorescence units), Insect TRPV cells [1, 4]: 78 fluorescence units | Response of cells (fluorescence units), mTRPV4 cells [2, 5]: 52 fluorescence units | Response of cells (fluorescence units), Parental CHO cells [3, 6]: 73 fluorescence units

N.N.N.N.N.N.N.N.N.N.N.N.N.N.[Cl-].[Cl-].[Cl-].[Cl-].[Cl-].[Cl-].[O-2].[O-2].[Ru+3].[Ru+3].[Ru+4] [Ruthenium red]
Inhibition of stimulation of the insect TRPV channel [1]: inhibited | Inhibition of stimulation of the insect TRPV channel ([1]; listed as ruthenium red): inhibition of the response

Clc1ccc(C2CC3CCC2N3)cn1 (centres unmarked) [Epibatidine]
Response of cells (fluorescence units), Insect TRPV cells ([1]; […]): 70 fluorescence units | Response of cells (fluorescence units), mTRPV4 cells [2, 5]: 63 fluorescence units | Response of cells (fluorescence units), Parental CHO cells [3, 6]: 49 fluorescence units
